In assay [1] the target is T1, G-protein coupled receptor 35 (Homo sapiens, UniProt Q9HC97). Nature of the assay: inhibition of zaprinast-stimulated GPR35 beta-arrestin translocation – imaging, U2OS, beta-arrestin-GFP, zaprinast agonist, primary screen (AID 2058).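 Further: antagonist potency meaning inhibition of agonist-induced arrestin redistribution.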 It counts as functional.
In assay [2] the target is T1, G-protein coupled receptor 35. Nature of the assay: SAR Analysis for the identification of Selective Antagonists of ERK1/2 Activity in GPR35-Overexpressing U2OS Cells. [Related pubchem assays: 2079, 2058 ]. It counts as functional, cell-based.
The target in assay [3] is Tyrosine-protein phosphatase non-receptor type 12 (Homo sapiens, UniProt Q05209). In words: SAR Selectivity Analysis of small molecule inhibitors of PEST using pCAP in a fluorescence assay. [Related pubchem assays (depositor defined):AID1779, AID1784, AID2135]. It counts as functional.
Assay [4] addresses T2, Tyrosine-protein phosphatase non-receptor type 22 (Homo sapiens, UniProt Q9Y2R2). In words: SAR LYP1 Fluorescent Assay using OMFP substrate for In Vitro dose response studies - Set 3. [Related pubchem assays (depositor defined):AID1779, AID1784, AID2140, AID2686]. It counts as functional.
Assay [5] deals with T2, Tyrosine-protein phosphatase non-receptor type 22. In words: inhibition of lymphoid tyrosine phosphatase LYP – biochemical, pCAP fluorogenic substrate, fluorescence, set 3, SAR follow-up (AID 449727). It counts as functional.
Assay [6] has as its target G-protein coupled receptor 55 (Homo sapiens, UniProt Q9Y2T6). Nature of the assay: blockers of GPR55 signalling, imaged – imaging, image-based, counter-screen for GPR35 antagonist project, SAR follow-up (AID 2397). It counts as functional. A general note: Counterscreens check selectivity or assay interference.
Assay [7] addresses 26S proteasome non-ATPase regulatory subunit 14 (Homo sapiens, UniProt O00487). Nature of the assay: inhibition of proteasome subunit RPN11 – biochemical, fluorescence polarization, uHTS hits, confirmation (AID 602368). It counts as functional. On the technique in general: Polarisation of emitted light reports the rotation of a fluorescent probe.
Assay [8] addresses 72 kDa type IV collagenase (Homo sapiens, UniProt P08253). Nature of the assay: Dose Response validation of uHTS RPN11 inhibitor hits using a MMP-2 Fluorescence assay. It counts as functional.
The target of a further assay is Prothrombin (Bos taurus, UniProt P00735). In words: thrombin protease inhibitors – biochemical, fluorescence polarization, uHTS hits, dose response (AID 602369). It counts as functional.
A short description of assay [9]: Luminescence Cell Based Dose Confirmation HTS to Identify Activators of 5'UTR Stem-Loop Driven Alpha-Synuclein mRNA Translation in H4 Neuroglioblastoma Cells. [Related pubchem assays (depositor defined):AID1813, AID1829]. The note with it: Homo sapiens. It counts as functional.
The target of a further assay is Trypsin (Sus scrofa, UniProt P00761). Nature of the assay: trypsin protease activity blockade – biochemical, quenched peptide fluorescence, cherry-pick, selectivity assay for Rce1 protease inhibitor project, dose response (AID 488789).
A further assay has as its target T3, CAAX prenyl protease 2 (Homo sapiens, UniProt Q9Y256).
T3 sequence (Q9Y256 whole entry): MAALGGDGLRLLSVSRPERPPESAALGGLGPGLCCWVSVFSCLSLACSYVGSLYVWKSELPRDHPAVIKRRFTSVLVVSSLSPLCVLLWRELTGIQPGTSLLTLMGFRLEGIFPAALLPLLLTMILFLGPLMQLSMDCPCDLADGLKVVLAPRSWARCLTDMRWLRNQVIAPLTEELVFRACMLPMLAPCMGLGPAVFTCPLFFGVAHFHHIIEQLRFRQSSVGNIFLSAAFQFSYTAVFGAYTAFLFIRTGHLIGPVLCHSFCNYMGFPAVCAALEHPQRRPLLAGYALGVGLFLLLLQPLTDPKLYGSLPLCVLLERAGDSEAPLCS
In words: inhibition of Ras-converting CAAX protease Rce1 – biochemical, yeast membranes, quenched-peptide fluorescence, cherry-pick, dose response (AID 588849).

Our source for the IC50, EC50 and AC50 values is ChEMBL document CHEMBL1201862, “PubChem BioAssay data set” (2004).

Calls of active or inactive are those of the source.

T1 sequence (Q9HC97 whole entry): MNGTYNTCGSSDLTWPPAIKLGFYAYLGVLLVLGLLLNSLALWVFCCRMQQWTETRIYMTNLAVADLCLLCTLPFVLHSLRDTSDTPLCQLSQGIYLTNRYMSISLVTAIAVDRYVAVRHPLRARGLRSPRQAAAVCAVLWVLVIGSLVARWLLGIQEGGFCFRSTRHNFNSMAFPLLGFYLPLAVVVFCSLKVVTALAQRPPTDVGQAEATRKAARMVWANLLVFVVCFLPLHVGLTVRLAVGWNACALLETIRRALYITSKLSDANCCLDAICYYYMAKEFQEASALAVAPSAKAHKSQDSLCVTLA
T2 sequence (Q9Y2R2 whole entry): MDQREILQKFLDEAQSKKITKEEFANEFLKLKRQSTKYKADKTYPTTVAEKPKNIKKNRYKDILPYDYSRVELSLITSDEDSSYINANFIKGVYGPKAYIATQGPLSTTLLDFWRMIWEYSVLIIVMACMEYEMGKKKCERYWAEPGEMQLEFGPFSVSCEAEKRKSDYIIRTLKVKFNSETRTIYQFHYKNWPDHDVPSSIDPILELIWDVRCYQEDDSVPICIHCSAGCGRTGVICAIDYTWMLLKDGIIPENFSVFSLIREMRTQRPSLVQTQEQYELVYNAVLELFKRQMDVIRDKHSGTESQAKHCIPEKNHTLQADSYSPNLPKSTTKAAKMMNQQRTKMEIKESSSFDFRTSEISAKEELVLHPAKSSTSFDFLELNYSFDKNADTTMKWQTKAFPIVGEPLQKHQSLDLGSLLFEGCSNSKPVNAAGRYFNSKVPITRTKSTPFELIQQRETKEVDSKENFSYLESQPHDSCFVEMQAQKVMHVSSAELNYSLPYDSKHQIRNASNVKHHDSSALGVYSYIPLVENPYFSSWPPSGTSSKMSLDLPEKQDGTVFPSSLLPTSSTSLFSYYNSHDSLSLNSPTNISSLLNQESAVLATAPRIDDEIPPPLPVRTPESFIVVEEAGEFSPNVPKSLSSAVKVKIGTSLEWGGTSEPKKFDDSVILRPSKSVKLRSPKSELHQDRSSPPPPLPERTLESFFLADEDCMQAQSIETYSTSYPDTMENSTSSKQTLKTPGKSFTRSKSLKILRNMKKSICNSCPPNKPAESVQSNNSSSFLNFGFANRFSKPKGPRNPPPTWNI
Sequence of G-protein coupled receptor 55 (Q9Y2T6 whole entry): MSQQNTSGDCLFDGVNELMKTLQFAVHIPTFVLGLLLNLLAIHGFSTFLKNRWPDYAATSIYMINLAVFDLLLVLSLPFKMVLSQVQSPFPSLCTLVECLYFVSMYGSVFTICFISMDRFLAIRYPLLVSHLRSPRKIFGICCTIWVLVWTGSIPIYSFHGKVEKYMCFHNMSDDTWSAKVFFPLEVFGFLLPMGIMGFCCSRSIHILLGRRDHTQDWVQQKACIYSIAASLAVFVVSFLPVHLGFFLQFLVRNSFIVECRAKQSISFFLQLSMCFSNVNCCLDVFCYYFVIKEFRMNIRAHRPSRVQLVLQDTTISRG
Sequence of Trypsin (P00761 whole entry): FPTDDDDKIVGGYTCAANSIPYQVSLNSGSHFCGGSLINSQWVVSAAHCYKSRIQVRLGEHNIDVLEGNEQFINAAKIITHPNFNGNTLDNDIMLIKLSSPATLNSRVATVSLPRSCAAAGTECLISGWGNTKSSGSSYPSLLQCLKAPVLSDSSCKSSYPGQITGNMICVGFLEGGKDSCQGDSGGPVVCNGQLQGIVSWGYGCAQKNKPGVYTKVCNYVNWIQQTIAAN
Sequence of Tyrosine-protein phosphatase non-receptor type 12 (Q05209 whole entry): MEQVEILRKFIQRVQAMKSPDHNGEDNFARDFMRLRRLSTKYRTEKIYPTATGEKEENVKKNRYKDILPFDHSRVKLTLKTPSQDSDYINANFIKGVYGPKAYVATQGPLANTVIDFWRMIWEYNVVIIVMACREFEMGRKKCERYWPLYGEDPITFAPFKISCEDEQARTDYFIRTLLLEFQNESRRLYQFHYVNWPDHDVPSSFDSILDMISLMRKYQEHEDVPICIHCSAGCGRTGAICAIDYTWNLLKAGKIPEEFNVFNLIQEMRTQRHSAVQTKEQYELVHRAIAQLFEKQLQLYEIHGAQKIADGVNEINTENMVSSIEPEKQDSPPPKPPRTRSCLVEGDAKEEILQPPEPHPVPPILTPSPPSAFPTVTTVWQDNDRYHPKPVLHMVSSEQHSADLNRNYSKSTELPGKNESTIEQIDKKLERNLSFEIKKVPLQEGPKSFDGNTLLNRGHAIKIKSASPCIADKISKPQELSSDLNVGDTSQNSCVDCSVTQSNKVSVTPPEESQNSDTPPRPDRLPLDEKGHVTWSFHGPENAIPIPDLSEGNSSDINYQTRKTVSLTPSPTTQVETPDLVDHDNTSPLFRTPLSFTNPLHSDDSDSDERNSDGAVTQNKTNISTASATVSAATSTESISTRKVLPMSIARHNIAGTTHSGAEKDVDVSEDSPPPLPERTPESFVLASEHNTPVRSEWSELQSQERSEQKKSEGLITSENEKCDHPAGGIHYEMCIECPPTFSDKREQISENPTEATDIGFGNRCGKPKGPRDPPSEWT
Sequence of 72 kDa type IV collagenase (P08253 whole entry): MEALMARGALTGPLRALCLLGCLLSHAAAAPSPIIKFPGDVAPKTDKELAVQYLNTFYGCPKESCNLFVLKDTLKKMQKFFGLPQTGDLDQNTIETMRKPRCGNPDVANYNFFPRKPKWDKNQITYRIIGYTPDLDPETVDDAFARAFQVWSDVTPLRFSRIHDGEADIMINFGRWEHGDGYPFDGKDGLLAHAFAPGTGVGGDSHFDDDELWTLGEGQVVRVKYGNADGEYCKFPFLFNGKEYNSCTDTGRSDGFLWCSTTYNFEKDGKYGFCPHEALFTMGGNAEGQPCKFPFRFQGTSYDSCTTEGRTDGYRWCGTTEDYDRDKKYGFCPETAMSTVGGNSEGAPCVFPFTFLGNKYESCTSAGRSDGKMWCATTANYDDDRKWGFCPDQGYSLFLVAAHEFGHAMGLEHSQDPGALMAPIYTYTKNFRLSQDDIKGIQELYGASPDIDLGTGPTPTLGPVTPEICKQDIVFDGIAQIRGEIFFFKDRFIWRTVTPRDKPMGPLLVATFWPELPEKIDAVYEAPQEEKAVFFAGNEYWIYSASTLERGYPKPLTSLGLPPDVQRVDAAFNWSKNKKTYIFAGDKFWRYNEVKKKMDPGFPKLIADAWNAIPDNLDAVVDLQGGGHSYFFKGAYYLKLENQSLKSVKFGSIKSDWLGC
Sequence of 26S proteasome non-ATPase regulatory subunit 14 (O00487 whole entry): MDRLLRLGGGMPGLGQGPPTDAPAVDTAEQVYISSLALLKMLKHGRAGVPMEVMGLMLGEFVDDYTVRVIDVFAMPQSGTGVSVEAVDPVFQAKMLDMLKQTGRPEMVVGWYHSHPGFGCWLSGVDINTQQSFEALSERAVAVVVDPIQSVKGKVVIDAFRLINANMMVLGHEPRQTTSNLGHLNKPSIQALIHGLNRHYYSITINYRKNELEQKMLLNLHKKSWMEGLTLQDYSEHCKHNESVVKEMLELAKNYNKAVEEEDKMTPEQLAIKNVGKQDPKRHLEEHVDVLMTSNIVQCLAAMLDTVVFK

As to `COc1ccc(/C=C2\SC(=S)N(CCCC(=O)Nc3cccc(C(=O)O)c3)C2=O)cc1OC`, the IC50 – broadly, the concentration that gives 50% inhibition – is 0.564 µM (active) in assay [1]; 1.2 µM (active) in assay [2]; 58.8 µM (active) in assay [3]; > 100 µM (inactive) in [4]; 95.9 µM (active) in assay [5]; > 32 µM (inactive) in [6]. The values for the IC50 (in assay [7]; in [8]; on Prothrombin) were 17.7 µM (active), > 100 µM (inactive) and 23.9 µM (active), respectively.
On to `FC(F)(F)c1ccc(Cl)c(Nc2nnc(-c3ccncc3)s2)c1`, for which the EC50 (in general, the concentration giving half of the maximal effect) in [9] is > 195 µM (inactive).
`C=CCn1c(=O)c2c(nc(-c3ccc(S(=O)(=O)O)cc3)n2C)n(C)c1=O`: the results for the AC50 at Trypsin and on CAAX prenyl protease 2 were 1.41 µM (active) and 5.44 µM (active), respectively.
